Experimental findings from patent US20230086702A1, “SUBSTITUTED 2-AMINO-PYRAZOLYL-[1,2,4]TRIAZOLO[1,5A]PYRIDINE DERIVATIVES AND USE THEREOF” (The Johns Hopkins University, priority 2019, published 2023) are described below.

In one assay the target is T1, LZK (Homo sapiens, UniProt O43283).
T1 construct: 10 nM LZK, catalytic domain, Carna Biosiences in assay buffer; purchased Carna Biosciences ('Carna Biosiences' [sic])
T1 sequence (O43283 168-409 limits assumed): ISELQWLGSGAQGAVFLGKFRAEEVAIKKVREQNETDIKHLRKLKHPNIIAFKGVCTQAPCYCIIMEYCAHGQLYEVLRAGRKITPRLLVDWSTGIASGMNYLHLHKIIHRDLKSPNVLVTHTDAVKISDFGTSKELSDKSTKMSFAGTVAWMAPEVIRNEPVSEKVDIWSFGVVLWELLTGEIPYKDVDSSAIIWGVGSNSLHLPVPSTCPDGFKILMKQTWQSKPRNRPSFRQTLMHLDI
The experiment in a line: LZK biochemical assay (TR-FRET, MKK7 phosphorylation). The following applies: LZK catalytic domain, MKK7 substrate, 15 μM ATP.

In a further assay the target is T2, DLK (Homo sapiens, UniProt Q12852).
T2 construct: 10 nM DLK, catalytic domain, Carna Biosiences; purchased Carna Biosciences ('Carna Biosiences' [sic])
T2 sequence (Q12852 125-366 limits assumed): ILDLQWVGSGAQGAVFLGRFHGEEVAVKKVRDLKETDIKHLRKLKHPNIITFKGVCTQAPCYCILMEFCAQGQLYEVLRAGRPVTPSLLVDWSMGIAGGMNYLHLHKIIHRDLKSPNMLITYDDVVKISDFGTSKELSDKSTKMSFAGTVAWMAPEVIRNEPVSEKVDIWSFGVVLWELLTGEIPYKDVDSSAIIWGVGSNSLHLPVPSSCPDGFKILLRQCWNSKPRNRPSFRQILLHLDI
Kind of assay: DLK biochemical assay (TR-FRET, MKK7 phosphorylation). The following applies: DLK catalytic domain, MKK7 substrate, 60 μM ATP. In outline:
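Human DLK activity measured as phosphorylation of His-tagged MKK7 at T275/S277, detected by TR-FRET between Eu-anti-phospho-MKK7 donor (excitation 340 nm) and XL665-anti-His acceptor (665 nm). Signal taken as the XL665/Eu ratio. Detection buffer: 25 mM Tris/HCl pH 7.5, 100 mM EDTA, 100 mM NaCl, 200 mM KF, 0.01% Tween 20.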

One may read the IC50 as the concentration at which inhibition is half-maximal. A low value points to inhibition by little substance. For the compound `CCC(c1ccc(Cl)s1)n1cc(-c2cc(C(=O)N[C@@H](C)CC)c3nc(N)nn3c2)cn1` (single isomer, unassigned) [Example I-131], the IC50 came to 33 nM against LZK and 1.5 nM at DLK.

For `CC[C@H](NC(=O)c1cc(-c2cnn(Cc3ccccc3)c2)cn2nc(N)nc12)C(F)(F)F` (single isomer, unassigned) [Example I-133], the results for the IC50 on LZK and against DLK were 330 nM and 110 nM, respectively.

Turning to `CC[C@@H](NC(=O)c1cc(-c2cnn(Cc3ccccc3)c2)cn2nc(N)nc12)C(F)(F)F` (single isomer, unassigned) [Example I-134], the values for the IC50 at LZK and on DLK were 970 nM and 230 nM, respectively.

With `COC[C@H](C)NC(=O)c1cc(-c2cnn(Cc3ccc(F)cc3)c2)cn2nc(N)nc12` (single isomer, unassigned) [Example I-135, 2-Amino-6-{1-[(4-fluorophenyl)methyl]-1H-pyrazol-4-yl}-N-[(25)-1-methoxypropan-2-yl][1,2,4]triazolo[1,5-a]pyridine-8-carboxamide], the IC50 was found to be 550 nM at LZK and 190 nM on DLK.

As for `CC(CF)NC(=O)c1cc(-c2cnn(C(c3ccccc3)C(C)C)c2)cn2nc(N)nc12` (single isomer, unassigned) [Example I-139, 2-Amino-N-(1-fluoropropan-2-yl)-6-{1-[2-methyl-1-phenylpropyl]-1H-pyrazol-4-yl}[1,2,4]triazolo[1,5-a]pyridine-8-carboxamide], the IC50 against LZK worked out at 64 nM; on DLK, 1.7 nM.

Turning to `CC(CF)NC(=O)c1cc(-c2cnn(C(c3ccccc3)C(C)C)c2)cn2nc(N)nc12` (single isomer, unassigned) [Example I-140, 2-Amino-N-(1-fluoropropan-2-yl)-6-[1-(2-methyl-1-phenylpropyl)-1H-pyrazol-4-yl][1,2,4]triazolo[1,5-a]pyridine-8-carboxamide], the IC50 amounted to 32 nM at LZK and 0.5 nM against DLK.

For `CC(CF)NC(=O)c1cc(-c2cnn(C(c3ccccc3)C(C)C)c2)cn2nc(N)nc12` (single isomer, unassigned) [Example I-141, 2-Amino-N-(1-fluoropropan-2-yl)-6-[1-(2-methyl-1-phenylpropyl)-1H-pyrazol-4-yl][1,2,4]triazolo[1,5-a]pyridine-8-carboxamide], the IC50 at LZK worked out at 355 nM; against DLK, 26 nM.

As to `CC(CF)NC(=O)c1cc(-c2cnn(C(c3ccccc3)C(C)C)c2)cn2nc(N)nc12` (single isomer, unassigned) [Example I-142, 2-Amino-N-[1-fluoropropan-2-yl]-6-{1-[2-methyl-1-phenylpropyl]-1H-pyrazol-4-yl}[1,2,4]triazolo[1,5-a]pyridine-8-carboxamide], the IC50 at LZK came out at 240 nM; against DLK, 4.2 nM.

As to `CC(CF)NC(=O)c1cc(-c2cnn(C3CCOc4ccccc43)c2)cn2nc(N)nc12` (single isomer, unassigned) [Example I-145, 2-Amino-6-[1-(3,4-dihydro-2H-chromen-4-yl)-1H-pyrazol-4-yl]-N-(1-fluoropropan-2-yl)[1,2,4]triazolo[1,5-a]pyridine-8-carboxamide], the 50% inhibitory concentration (IC50) against LZK and against DLK was 110 nM throughout.

Take `CC(CF)NC(=O)c1cc(-c2cnn(C3CCOc4ccccc43)c2)cn2nc(N)nc12` (single isomer, unassigned) [Example I-146, 2-Amino-6-[1-(3,4-dihydro-2H-chromen-4-yl)-1H-pyrazol-4-yl]-N-(1-fluoropropan-2-yl)[1,2,4]triazolo[1,5-a]pyridine-8-carboxamide]: the IC50 on LZK was 85 nM; against DLK it was 130 nM.

For the compound `CC[C@@H](c1ccc(F)cc1)n1cc(-c2cc(C(=O)NC(C)CF)n3nc(N)nc3c2)cn1` (single isomer, unassigned) [Example I-149, 2-Amino-7-{1-[(15)-1-(4-fluorophenyl)propyl]-1H-pyrazol-4-yl}-N-(1-fluoropropan-2-yl)[1,2,4]triazolo[1,5-a]pyridine-5-carboxamide], the IC50 against LZK came out at 13 nM; at DLK, 1.7 nM.

Consider `CC[C@@H](c1ccc(F)cc1)n1cc(-c2cc(C(=O)NC(C)CF)n3nc(N)nc3c2)cn1` (single isomer, unassigned) [Example I-150, 2-Amino-7-{1-[(15)-1-(4-fluorophenyl)propyl]-1H-pyrazol-4-yl}-N-(1-fluoropropan-2-yl)[1,2,4]triazolo[1,5-a]pyridine-5-carboxamide], for which the IC50 is 60 nM on LZK and 6.5 nM at DLK.

For the compound `CCC(c1ccc(C(F)(F)F)nc1)n1cc(-c2cc(C(=O)N[C@@H](C)CO)c3nc(N)nn3c2)cn1` (single isomer, unassigned) [Example I-152], the results for the concentration for half-maximal inhibition (IC50) at LZK and at DLK were 3.9 nM and 0.7 nM, respectively.

In the case of `CCC(c1ccc(C(F)(F)F)nc1)n1cc(-c2cc(C(=O)N[C@@H](C)CO)c3nc(N)nn3c2)cn1` (single isomer, unassigned) [Example I-153, 2-Amino-N-[(25)-1-hydroxypropan-2-yl]-6-(1-{1-[6-(trifluoromethyl)pyridin-3-yl]propyl}-1H-pyrazol-4-yl)[1,2,4]triazolo[1,5-a]pyridine-8-carboxamide], the half-maximal inhibitory concentration (IC50) was found to be 29 nM at LZK and 6.2 nM at DLK.

For the compound `C[C@@H](CO)NC(=O)c1cc(-c2cnn([C@H](c3ccc(C(F)(F)F)nc3)C3CCOCC3)c2)cn2nc(N)nc12` (single isomer, unassigned) [Example I-155, 2-Amino-N-[(25)-1-hydroxypropan-2-yl]-6-(1-{tetrahydro-2H-pyran-4-yl[6-(trifluoromethyl)pyridin-3-yl]methyl}-1H-pyrazol-4-yl)[1,2,4]triazolo[1,5-a]pyridine-8-carboxamide], the half-maximal inhibitory concentration (IC50) against LZK stood at 3.9 nM; on DLK, 0.7 nM.

As to `C[C@@H](CO)NC(=O)c1cc(-c2cnn(C(c3ccc(C(F)(F)F)nc3)C3CCOCC3)c2)cn2nc(N)nc12` (single isomer, unassigned) [Example I-156, 2-Amino-N-[(25)-1-hydroxypropan-2-yl]-6-(1-{tetrahydro-2H-pyran-4-yl[6-(trifluoromethyl)pyridin-3-yl]methyl}-1H-pyrazol-4-yl)[1,2,4]triazolo[1,5-a]pyridine-8-carboxamide], the IC50 against LZK was found to be 23 nM; against DLK, 13 nM.

On to `CC[C@@H](c1ccc(OC(F)(F)F)nc1)n1cc(-c2cc(C(=O)N[C@@H](C)CO)c3nc(N)nn3c2)cn1` (single isomer, unassigned) [Example I-158, 2-Amino-N-[(25)-1-hydroxypropan-2-yl]-6-(1-{1-[6-(trifluoromethoxy)pyridin-3-yl]propyl}-1H-pyrazol-4-yl)[1,2,4]triazolo[1,5-a]pyridine-8-carboxamide], for which the IC50 at LZK turned out to be 3.4 nM; against DLK, 0.6 nM.

As for `CCC(c1ccc(OC(F)(F)F)nc1)n1cc(-c2cc(C(=O)N[C@@H](C)CO)c3nc(N)nn3c2)cn1` (single isomer, unassigned) [Example I-159], the IC50 against LZK was 30 nM; at DLK, 6.7 nM.

As for `CC(C)C(c1ccc(F)cc1)n1cc(-c2cc(C(=O)N[C@@H](C)CO)c3nc(N)nn3c2)cn1` (single isomer, unassigned) [Example I-161], the IC50 was determined as 540 nM against LZK and 51 nM on DLK.

As to `CC(C)[C@@H](c1ccc(F)cc1)n1cc(-c2cc(C(=O)N[C@@H](C)CO)c3nc(N)nn3c2)cn1` (single isomer, unassigned) [Example I-162], the values for the concentration for half-maximal inhibition (IC50) at LZK and at DLK were 83 nM and 1.3 nM, respectively.

As for `CC[C@@H](c1ccc(C(F)(F)F)nc1)n1cc(-c2cc(C(=O)NC(C)(C)CO)c3nc(N)nn3c2)cn1` (single isomer, unassigned) [Example I-164, 2-Amino-N-(1-hydroxy-2-methylpropan-2-yl)-6-(1-{1-[6-(trifluoromethyl)pyridin-3-yl]propyl}-1H-pyrazol-4-yl)[1,2,4]triazolo[1,5-a]pyridine-8-carboxamide], the figures for the concentration for half-maximal inhibition (IC50) on LZK and against DLK were 52 nM and 6.3 nM, respectively.

As to `CCC(c1ccc(C(F)(F)F)nc1)n1cc(-c2cc(C(=O)NC(C)(C)CO)c3nc(N)nn3c2)cn1` (single isomer, unassigned) [Example I-165, 2-Amino-N-(1-hydroxy-2-methylpropan-2-yl)-6-(1-{1-[6-(trifluoromethyl)pyridin-3-yl]propyl}-1H-pyrazol-4-yl)[1,2,4]triazolo[1,5-a]pyridine-8-carboxamide], the IC50 was determined as 190 nM at LZK and 64 nM against DLK.

In the case of `CC(C)(CO)NC(=O)c1cc(-c2cnn(C(c3ccc(C(F)(F)F)nc3)C3CCOCC3)c2)cn2nc(N)nc12` (single isomer, unassigned) [Example I-167, 2-Amino-N-(1-hydroxy-2-methylpropan-2-yl)-6-(1-{tetrahydro-2H-pyran-4-yl[6-(trifluoromethyl)pyridin-3-yl]methyl}-1H-pyrazol-4-yl)[1,2,4]triazolo[1,5-a]pyridine-8-carboxamide], the concentration for half-maximal inhibition (IC50) against LZK came to 85 nM; on DLK, 22 nM.
